# Results as given in patent publication US20250197642A1, “PHTHALOCYANINE PIGMENT, PHTHALOCYANINE COMPOUND, COLORING COMPOSITION, METHOD FOR PRODUCING PHTHALOCYANINE PIGMENT, AND METHOD FOR PRODUCING COLORING COMPOSITION” (FUJIFILM CORPORATION, priority 2022, published 2025).
# Tests used:
# [1] = Evaluation of storage stability (viscosity increase proportion after storage); format: physicochemical; settings: aqueous coloring compositions 1 to 8 and A to C; stored 7 days at 45° C., viscosity at 25° C.
# Description: In an environment of 45° C. by an oven, the coloring compositions 1 to 8 and the coloring compositions A to C were stored for 7 days.
# A viscosity of the coloring composition before and after the storage was measured, a viscosity increase proportion (Viscosity after storage−Viscosity before storage)/Viscosity before storage×100 was determined, and the evaluation was performed based on the following evaluation standard.
# The viscosity of the coloring composition was measured using a viscometer RE85L (rotor: 1°34′×R24, measurement range: 0.6 to 1200 mPa·s) manufactured by TOKI-SANGYO Co., Ltd. in a state in which the temperature was adjusted to 25° C.
# • A: viscosity increase proportion was 10% or less. • B: viscosity increase proportion was more than 10%.
# [2] = Evaluation of light fastness (compound residual rate after xenon light irradiation of ink jet image); format: physicochemical; settings: aqueous coloring compositions 1 to 8 and A to C; image on art paper, xenon light 85,000 lux, 100 hours
# Source text: The pigment dispersion liquid 1, a polyurethane resin (HYDRAN (registered trademark) AP-40F (manufactured by DIC Corporation)), and deionized water were mixed to produce an aqueous pigment dispersion liquid 1 having a pigment content of 10% by mass and a polyurethane resin non-volatile content of 2% by mass.
# The following components were mixed to obtain a coloring composition 1.
# Coloring compositions 2 to 8 were obtained in the same manner as in the above-described method, except that the pigment dispersion liquid 1 was changed to each of the pigment dispersion liquids 2 to 8.
# A coloring composition A was obtained in the same manner as in the above-described method, except that the pigment dispersion liquid 1 was changed to the pigment dispersion liquid A. […]
# The above-described image was irradiated with xenon light (85,000 lux) for 100 hours using a weather meter (manufactured by Atlas, Ci65), and a reflection density after the irradiation with xenon light was measured using a reflection densitometer (manufactured by X-Rite, Inc., trade name: X-Rite i1Pro). […]
# A compound residual rate (%) before and after the irradiation with xenon light was calculated from the following expression, and evaluated based on the following evaluation standard. […]
substance,measurement,setting,value
C. I. Pigment Green 58 [PG58],Evaluation of storage stability,[1],B (viscosity increase proportion was more than 10%)
same,Evaluation of light fastness,[2],A (compound residual rate was 80% or more)
